In article PMC6199744, “Development of Chemical Proteomics for the Folateome and Analysis of the Kinetoplastid Folateome” (ACS Infectious Diseases, 2018):

Tested on: L. major lysate proteins
Test: Multitargeted bead mixture chemoproteomics, single concentration competition, proteome-wide
Type: binding
Conditions: for fold change: vehicle control = 1

Nc1nc2[nH]cc(CCc3ccc(C(=O)N[C@@H](CCC(=O)O)C(=O)O)cc3)c2c(=O)[nH]1 [PTX, pemetrexed]
fold change vs vehicle control (protein LMJF.28.0110 […] 3 SUBUNIT, PUTATIVE): 0.95
fold change vs vehicle control (protein LMJF.28.0490 PROPIONYL-COA C[…] CHAIN, PUTATIVE): 1.09
fold change (protein LMJF.28.0710 HY[…], CONSERVED (SNARE associated Golgi protein, putative)): 0.8
fold change vs vehicle control (protein LMJF.28.0930 HY[…], CONSERVED): 0.96
fold change vs vehicle control (protein LMJF.28.0960 40S RIBOSOMAL PROTEIN S14): 1.01
fold change vs vehicle control (protein LMJF.28.1530 ATP DEPENDENT DEAD-BOX HELICASE, PUTATIVE): 0.81
fold change relative to vehicle control (protein LMJF.28.1730, […]-ATP-ASE SUBUNIT 2, PUTATIVE): 1.01
fold change vs vehicle control (protein LMJF.28.2430 VACUOLAR ATP SYNTHASE SUBUNIT B, PUTATIVE): 0.95
fold change relative to vehicle control (protein LMJF.28.2770, HEAT-SHOCK PROTEIN HSP70, PUTATIVE): 1.13
fold change (protein LMJF.28.2910 GLUTAMATE DEHYDROGENASE, PUTATIVE): 0.86
fold change vs vehicle control (protein LMJF.29.0120 […]-ATPASE SUBUNIT, PUTATIVE): 0.92
fold change (protein LMJF.29.0620 ATP-BINDING CASSETTE PROTEIN SUBFAMILY A, MEMBER 10, PUTATIVE): 0.73
fold change relative to vehicle control (protein LMJF.29.0850, HIGH MOBILITY GROUP PROTEIN HOMOLOG TDP-1, PUTATIVE): 1.14
fold change vs vehicle control (protein LMJF.29.0940 HY[…], CONSERVED): 1
fold change vs vehicle control (protein LMJF.29.1160 TRYPAREDOXIN): 0.85
fold change vs vehicle control (protein LMJF.29.1240 HY[…], UNKNOWN FUNCTION): 0.95
fold change vs vehicle control (protein LMJF.29.1270 100 kDa heat shock protein (Hsp100)): 0.95
fold change vs vehicle control (protein LMJF.29.1310 CARNITINE/CHOLINE ACETYLTRANSFERASE, PUTATIVE): 0.97
fold change relative to vehicle control (protein LMJF.29.1760, PAR[…] PROTEIN 1D, PUTATIVE): 1.4
fold change vs vehicle control (protein LMJF.29.1780 D[…] PROTEIN, PUTATIVE): 0.9
fold change (protein LMJF.29.2200 GTP-BINDING PROTEIN, PUTATIVE (dynamin-1-like protein)): 0.98
fold change (protein LMJF.29.2310 ENOYL-COA HYDRATASE/ISOMERASE-LIKE PROTEIN): 0.93
fold change vs vehicle control (protein LMJF.29.2360 ASPARTYL AMINOPEPTIDASE, PUTATIVE,METALLO-PEPTIDASE, CLAN MH, FAMILY M20): 0.84
fold change (protein LMJF.29.2860 40S RIBOSOMAL PROTEIN S19-LIKE PROTEIN): 1.11
fold change (protein LMJF.30.0580 HY[…], CONSERVED (AMP-binding enzyme, putative)): 0.77
fold change (protein LMJF.30.0850 SURFACE PROTEIN AMASTIN, PUTATIVE): 0.89
fold change vs vehicle control (protein LMJF.30.1250 PYRIDOXAL KINASE, PUTATIVE): 1.01
fold change relative to vehicle control (protein LMJF.30.3090, HY[…], CONSERVED (RNA-binding protein 42, putative)): 1.14
fold change vs vehicle control (protein LMJF.30.3240 GLUTAMYL-TRNA SYNTHETASE, PUTATIVE): 1.09
fold change (protein LMJF.30.3430 HY[…], CONSERVED (protein mkt1, putative)): 0.97
fold change (protein LMJF.30.3520 S-ADENOSYL[…]): 0.85
fold change (protein LMJF.30.3570 ZINC FINGER-DOMAIN PROTEIN, PUTATIVE): 0.7
fold change relative to vehicle control (protein LMJF.31.0080, HY[…], CONSERVED): 1.19
fold change vs vehicle control (protein LMJF.31.0340 AMINO ACID PERMEASE, PUTATIVE): 0.93
fold change (protein LMJF.31.1130 N-ACYL-L-AMINO ACID AMIDOHYDROLASE, PUTATIVE): 0.96
fold change vs vehicle control (protein LMJF.31.1640 THIOLASE PROTEIN-LIKE PROTEIN): 0.95
fold change relative to vehicle control (protein LMJF.31.2150, PROSTAGLANDIN F2-ALPHA SYNTHASE/D-ARABINOSE DEHYDROGENASE): 0.94
fold change vs vehicle control (protein LMJF.31.2250 3,2-TRANS-ENOYL-COA ISOMERASE, MIT[…], PUTATIVE): 0.92
fold change vs vehicle control (protein LMJF.32.0750 RNA BINDING PROTEIN, PUTATIVE): 1.04
fold change vs vehicle control (protein LMJF.32.1060 DYNEIN, PUTATIVE): 0.94
fold change relative to vehicle control (protein LMJF.32.1820, IRON SUPEROXIDE DISMUTASE, PUTATIVE): 1.02
fold change relative to vehicle control (protein LMJF.32.2320, C-14 STEROL REDUCTASE, PUTATIVE): 1.11
fold change vs vehicle control (protein LMJF.32.3870 MYOSIN XXI): 0.93
fold change relative to vehicle control (protein LMJF.33.0240, THIOL-DEPENDENT REDUCTASE 1): 1.12
fold change (protein LMJF.33.0280 HY[…], CONSERVED): 1.02
fold change relative to vehicle control (protein LMJF.33.0890, HY[…], CONSERVED): 0.88
fold change vs vehicle control (protein LMJF.33.1070 HY[…], UNKNOWN FUNCTION): 1.02
fold change vs vehicle control (protein LMJF.33.1330 CYSTEINE CONJUGATE BETA-LYASE, AMINOTRANSFERASE- LIKE PROTEIN): 0.74
fold change (protein LMJF.33.1590 HY[…], CONSERVED (3-ketoacyl-CoA reductase, putative)): 1.36
fold change relative to vehicle control (protein LMJF.33.1860, ATP-BINDING CASSETTE PROTEIN SUBFAMILY D, MEMBER 3, PUTATIVE): 1.27
fold change relative to vehicle control (protein LMJF.33.2340, SUCCINYL-COA:3-KETOACID-COENZYME A TRANSFERASE, MIT[…], PUTATIVE): 1.06
fold change relative to vehicle control (protein LMJF.33.2440, HY[…], CONSERVED): 1.15
fold change relative to vehicle control (protein LMJF.33.2540, CARBOXYPEPTIDASE, PUTATIVE,METALLO-PEPTIDASE, CLAN MA(E), FAMILY M32): 1.24
fold change (protein LMJF.33.3150 40S RIBOSOMAL PROTEIN S13, PUTATIVE): 1.05
fold change relative to vehicle control (protein LMJF.34.0140, MALATE DEHYDROGENASE): 1.48
fold change vs vehicle control (protein LMJF.34.0440 RIBOSOMAL PROTEIN S25): 1.12
fold change relative to vehicle control (protein LMJF.34.2580, HY[…], CONSERVED (ALBA-domain protein 3)): 1.03
fold change relative to vehicle control (protein LMJF.34.3250, PUTATIVE PYRUVATE/INDOLE-PYRUVATE CARBOXYLASE, PUTATIVE): 1.01
fold change (protein LMJF.34.4370 20S […] 7 SUBUNIT, (PUTATIVE)): 0.96
fold change vs vehicle control (protein LMJF.34.4620 HY[…], CONSERVED): 0.95
fold change (protein LMJF.35.0070 PROHIBITIN, PUTATIVE): 0.97
fold change vs vehicle control (protein LMJF.35.0360 ENOYL-COA HYDRATASE/ISOMERASE FAMILY PROTEIN, CONSERVED): 1.16
fold change (protein LMJF.35.0370 ATP-DEPENDENT DEAD-BOX RNA HELICASE, PUTATIVE): 0.95
fold change (protein LMJF.35.0420 40S RIBOSOMAL PROTEIN S3A, PUTATIVE): 1.12
fold change relative to vehicle control (protein LMJF.35.1220, SHORT CHAIN DEHYDROGENASE, PUTATIVE): 1.02
